The subject of data set [1] is PC3. As to the kind of experiment: Cytotoxicity propidium iodide assay, PC3. It is filed as cell-based, human. Conditions: Homo sapiens, PC-3. The essentials: (§1)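 Following a 48 h treatment with various compound concentrations, cells plated at 3000 per well were stained with […] propidium iodide and frozen overnight. Fluorescence after thawing gave percent viability against untreated controls, from which IC50 values were calculated.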

Data set [2] has as its system LN18. Description: Cytotoxicity propidium iodide assay, LN18. Conditions: Homo sapiens, LN-18; LN18 (glioblastoma), 48 hours treatment; read-out: IC50 Values in μM, C5b. It counts as cell-based. How it is done:
(§2) The assay was designed as in the reference, Anticancer Drugs, 2002, 13, 1-8, the disclosure of which is incorporated herein by reference for the teaching of the assay.
(§3) Cells from cell lines (ATCC) as mentioned in the table given below were seeded at a density of 3000 cells/well in a white opaque 96-well plate. Following incubation at 37° C./5% CO2 for a period of 18-24 hours, the cells were treated with various concentrations (stock solution was prepared in DMSO and subsequent dilutions were made in media as per ATCC guidelines) of the compounds of the present invention for a period of 48 hours. At the end of treatment, the culture medium was discarded, the cells were washed with 1×PBS and 200 μL of […] propidium iodide was added to each well. The plates were frozen at 70° C. overnight. For analysis, the plates were warmed to RT, allowed to thaw and were read in PoleStar fluorimeter with the fluorescence setting. The percentage of viable cells in the non-treated set of wells was considered to be 100 and the percentage viability following treatment was calculated accordingly. IC50 values were calculated from graphs plotted using these percentages. IC50 values for certain compounds of present invention are depicted in Table 1 and % Inhibition of certain compounds of present invention are depicted in Table 2.

Data set [3] concerns K562. Description: Cytotoxicity propidium iodide assay, K562. Conditions: Homo sapiens; K562 (CML), 48 hours treatment; read-out: IC50 Values in μM, C6a. It is filed as cell-based. On the procedure: as §2, §3
Data set [4] concerns LN229. Description: Cytotoxicity propidium iodide assay, LN229. Particulars: Homo sapiens, LN-229; LN229 (glioblastoma), 48 hours treatment; read-out: IC50 Values in μM, C5a. It is filed as cell-based. How it is done: as §2, §3
Data set [5] concerns AsPC 1. Description: Cytotoxicity propidium iodide assay, AsPC 1. It is filed as cell-based. Particulars: Homo sapiens, ASPC1; AsPC 1 (pancreatic), 48 hours treatment; read-out: IC50 Values in μM, C4b. How it is done:
as §2
as §3, with “The plates were frozen at 70° C. overnight.” left out

Data set [6] has as its system T315I. As to the kind of experiment: Cytotoxicity propidium iodide assay, T315I. It is filed as cell-based. Conditions: T315I (CML), 48 hours treatment; read-out: IC50 Values in μM, C6b. On the procedure:
as §2, §3

In data set [7] the test system is MDA MB 468. Description: Cytotoxicity propidium iodide assay, MDA MB 468. It counts as cell-based. Conditions: Homo sapiens; MDA MB 468 (breast), 48 hours treatment; read-out: IC50 Values in μM, C3b. On the procedure: as §2, §3
The test system of data set [8] is BxPC3. As to the kind of experiment: Cytotoxicity propidium iodide assay, BxPC3. Particulars: Homo sapiens, BXPC-3; BxPC3 (pancreatic), 48 hours treatment; read-out: IC50 Values in μM, C4c. It counts as cell-based. How it is done:
as §2, §3

Data set [9] concerns U 87 MG. Description: Cytotoxicity propidium iodide assay, U 87 MG. Conditions: Homo sapiens; U 87 MG (glioblastoma), 48 hours treatment; read-out: IC50 Values in μM, C5c. It is filed as cell-based. How it is done:
as §2
as §3, with “The plates were frozen at 70° C. overnight.” left out

For data set [10], the system named is MCF7. Description: Cytotoxicity propidium iodide assay, MCF7. It is filed as cell-based. Conditions: Homo sapiens; MCF7 (breast), 48 hours treatment; read-out: IC50 Values in μM, C3d. On the procedure: as §2, §3
Data set [11] concerns A2780. Description: Cytotoxicity propidium iodide assay, A2780. It counts as cell-based. Conditions: Homo sapiens. The essentials:
as §1

In data set [12] the test system is KCL22/SR. Description: Cytotoxicity propidium iodide assay, KCL22/SR. It counts as cell-based. Particulars: Homo sapiens, KCL-22; KCL22/SR (CML), 48 hours treatment; read-out: IC50 Values in μM, C6e. How it is done: as §2, §3
The test system of data set [13] is MDA MB 231. As to the kind of experiment: Cytotoxicity propidium iodide assay, MDA MB 231. It counts as cell-based. Particulars: Homo sapiens; MDA MB 231 (breast), 48 hours treatment; read-out: IC50 Values in μM, C3a. On the procedure:
as §2
as §3, with “The plates were frozen at 70° C. overnight.” left out

In data set [14] the test system is BT 549. Description: Cytotoxicity propidium iodide assay, BT 549. It is filed as cell-based. Conditions: Homo sapiens; BT 549 (breast), 48 hours treatment; read-out: IC50 Values in μM, C3c. On the procedure: as §2, §3
Data set [15] has as its system KU812/SR. Description: Cytotoxicity propidium iodide assay, KU812/SR. It is filed as cell-based. Conditions: Homo sapiens; KU812/SR (CML), 48 hours treatment; read-out: IC50 Values in μM, C6c. How it is done: as §2, §3
Data set [16] deals with PI3K/mTOR pathway. As to the kind of experiment: Western blot analysis in A2780 ovarian cancer cell line. It is filed as cell-based. Particulars: A2780 cells treated for 1 hour; FIG. 1A-1E. How it is done:
Protocol for Western Blot Analysis
A2780 ovarian cancer cell line (ATCC) were grown to approximately 70% confluence in 100-mm tissue culture dishes and then treated for 1 hour with […] compounds of Example 2, 3, 5, 16, 19, 55 and 59. Total protein was extracted using cell lysis buffer (NaCl […], NP40 0.67%, Tris-Cl, pH 7.5, 67 mM) containing protease inhibitors and phosphatase inhibitors (Beta-glycerol phosphate 40 mM, DTT 1 mM, NaF 0.4 mM, Sodium-Orthovanadate 0.4 mM) at 4° C. for 1 hour. Cell lysates were then centrifuged at 2×10^4 g for 10 minutes at 4° C., and the protein concentration of the supernatant was quantified using the Bradford's method (BioRad, USA). For SDS-PAGE, 50 μg protein was loaded in SDS-PAGE, transferred to a polyvinylidene difluoride membrane (Bio-Rad, USA) and blocked with 5 mL buffer [5% skim milk and 0.1% Tween] for 1 hour 30 minutes. Membrane were probed with primary antibody (all primary antibodies were from cell signaling with 1:1000 in TBST solution) of respective protein at 4° C. overnight. Peroxidase-labeled anti-rabbit or anti-mouse antibodies (Santacruze, USA) were used as the secondary antibody. Actin and respective whole protein levels were used as the control for protein loading. Protein antigens were detected using Chemiluminescent Substrate (Thermo scientific, USA) and exposed on Kodak station.

Data set [17] relates to IL-6. As to the kind of experiment: Anti-CD3 mAb and anti-CD28 mAb-induced cytokine production assay, IL-6. It is filed as cell-based. Conditions: Homo sapiens, hPBMC, anti-CD3/anti-CD28, 18 hours. On the procedure:
(§4) Anti-CD3 mAb and Anti-CD28 mAb-Induced Cytokine Production Assay
(§5) Preparation of anti-CD3/anti-CD28 coated plates: 96 well plates were coated with goat anti-mouse IgG, Fc (Millipore) at a concentration of 16.5 μg/mL in coating buffer ([…] NaHCO3, 3.56 g Na2CO3, pH 9.5). Following overnight incubation at 4° C., the plates were washed and then incubated with anti-CD3 (3.5 μg/mL; R&D Systems) and anti-CD28 (35 ng/mL; R&D Systems) cocktail for 3 hours. Subsequently, the plates were washed, and used for hPBMC stimulation.
(§6) hPBMC stimulation: Peripheral blood was collected from normal healthy volunteers after informed consent. Peripheral blood mononuclear cells (hPBMC) were harvested using Ficoll-Hypaque density gradient centrifugation (1.077 g/mL; Sigma Aldrich). hPBMCs were resuspended in RPMI 1640 culture medium (Gibco BRL, Pasley, UK) containing 10% FCS, 100 U/mL penicillin (Sigma Chemical Co. St Louis, Mo.) and […] streptomycin (Sigma Chemical Co. St Louis, Mo.) at 1.25×10^6 cells/mL of assay medium. 2.5×10^5 hPBMCs were added per well of 96-well plate coated with or without anti-CD3/anti-CD28 mAbs. Simultaneously, 0.025 μM of compounds of the present invention or 0.5% DMSO (vehicle control) were added to appropriate wells. The cells were then incubated for 18 hours at 37° C., 5% CO2 following which supernatants were collected, stored at […] and assayed later for TNF-α, IL-6 and IFN-γ by ELISA (OptiEIA ELISA sets; BD Biosciences). In every experiment, each condition was run in triplicate wells. In all experiments, the toxicity of test compounds was ascertained, in parallel, using the MTS (3-(4,5-dimethylthiazol-2-yl)-5-(3-carboxymethoxyphenyl)-2-(4-sulfonyl)-2H-tetrazolium) assay as described in Am. J. Physiol. Cell Physiol., 2003, 285, C813-C822.

For data set [18], the system named is IFN-γ. Description: Con-A-induced IFN-γ production from hPBMC. Particulars: Homo sapiens, concanavalin A 1 μg/mL, 18 hours. It counts as cell-based. On the procedure:
Con-A-Induced IFN-γ Production from hPBMC
(§7) Peripheral blood was collected from normal healthy volunteers after informed consent. Peripheral blood mononuclear cells (hPBMC) were harvested using Ficoll-Hypaque density gradient centrifugation (1.077 g/mL; Sigma Aldrich). hPBMCs were resuspended in RPMI 1640 culture medium (Gibco BRL, Pasley, UK) containing 10% FCS, 100 U/mL penicillin (Sigma Chemical Co. St Louis, Mo.) and […] streptomycin (Sigma Chemical Co. St Louis, Mo.) at 1×10^6 cells/mL. 1×10^5 hPBMCs/well were pre-treated with 0.025 μM of compounds of present invention or 0.5% DMSO (vehicle control) for 30 minutes at 37° C. Subsequently, these cells were stimulated with 1 μg/mL concanavalin A (Sigma Chemical Co., St. Louis, Mo.). Following 18 hours of incubation at 37° C., supernatants were collected and stored at −70° C. until assayed for human IFN-γ by ELISA as described by the manufacturer (OptiEIA ELISA sets, BD BioSciences). In every experiment, cyclosporin (1 μM) was used as a positive control for inhibiting induced IFN-γ production. In all experiments, the toxicity of test compounds was ascertained, in parallel, using the MTS (3-(4,5-dimethylthiazol-2-yl)-5-(3-carboxymethoxyphenyl)-2-(4-sulfonyl)-2H-tetrazolium) assay as described in Am. J. Physiol. Cell Physiol., 2003, 285, C813-C822.

Data set [19] deals with IFN-γ. Description: Anti-CD3 mAb and anti-CD28 mAb-induced cytokine production assay, IFN-γ. It counts as cell-based. Particulars: Homo sapiens, hPBMC, anti-CD3/anti-CD28, 18 hours. On the procedure: as §4, §5, §6
Data set [20] relates to TNF-α. As to the kind of experiment: Anti-CD3 mAb and anti-CD28 mAb-induced cytokine production assay, TNF-α. It is filed as cell-based. Conditions: Homo sapiens, hPBMC, anti-CD3/anti-CD28, 18 hours. On the procedure: as §4, §5, §6
Data set [21] deals with hPBMC. Description: MTS toxicity assay in parallel to anti-CD3/anti-CD28 cytokine assay. It is filed as cell-based, human. Particulars: anti-CD3/anti-CD28 experiment. How it is done: as §6
On the technique in general: Formazan colour is commonly taken as a measure of viable cells.

In data set [22] the test system is hPBMC. As to the kind of experiment: MTS toxicity assay in parallel to Con-A-induced IFN-γ assay. It is filed as cell-based, human. Conditions: Con-A experiment. On the procedure: as §7

Take `Cn1c(=O)n(-c2ccc(C(F)(F)F)nc2)c2c3cc(-c4cnc(N)c(C(F)(F)F)c4)ccc3ncc21` [Example 55, 8-(6-Amino-5-(trifluoromethyl)pyridin-3-yl)-3-methyl-1-(6-(trifluoromethyl)pyridin-3-yl)-1H-imidazo[4,5-c]quinolin-2(3H)-one]: the IC50 (usually the concentration that inhibits the measured activity by half) was found to be 1.6 µM in data set [1] (PC3 (prostate), 48 hours treatment, read-out: IC50 Values in μM, C2a); 0.282 µM in [2]; 0.056 µM in data set [3]; 0.096 µM in [4]; 0.04 µM in data set [5]; 0.19 µM in [6]. The IC50 in data set [7] turned out to be 0.075 µM; in data set [8], 0.027 µM; in data set [9] it was 7.92 µM; in data set [10], 0.06 µM; in [11] (A2780 (ovarian), 48 hours treatment, read-out: IC50 Values in μM, C1a), 0.009 µM; in [12] it was 0.06 µM. In addition, the figures for the IC50 in data set [13], in data set [14] and in data set [15] were 0.035 µM, 0.17 µM and 0.23 µM, respectively. In data set [16], the “Akt, S6 and 4EBP1 phosphorylation (Western blot)” value is “inhibit Akt, S6 and 4EBP1 phosphorylation”.
For the compound `Cn1c(=O)n(-c2ccc(C(F)(F)F)nc2)c2c3cc(-c4ccc(F)nc4F)ccc3ncc21` [Example 57, 8-(2,6-Difluoropyridin-3-yl)-3-methyl-1-(6-(trifluoromethyl)pyridin-3-yl)-1H-imidazo [4,5-c]quinolin-2(3H)-one], the inhibition (as a rule, the relative decrease from the control value, in per cent) at 0.025 µM in [17] worked out at 94%; in data set [18], 88%; in data set [19], 88%; in [20], 80%. For the same compound, the “% Toxicity at 0.025 μM” value in data set [21] and in [22] was 14% in each case.
With `Cn1c(=O)n(-c2ccc(Cl)nc2Cl)c2c3cc(-c4cccnc4)ccc3ncc21` [Example 62, 1-(2,6-Dichloropyridin-3-yl)-3-methyl-8-(pyridin-3-yl)-1H-imidazo[4,5-c]quinolin-2(3H)-one], the inhibition at 1 µM is 28% in data set [1] (PC3, 1 μM, 48 hours, read-out: % Inhibition at 1 μM, C2a) and 69% in [11] (A2780, 1 μM, 48 hours, read-out: % Inhibition at 1 μM, C1a). Moreover, the IC50 is 1.08 µM in [2]; 0.144 µM in [3]; 1.03 µM in [4]; 9.92 µM in data set [9]; 0.62 µM in data set [12]; 1.5 µM in [14]. In addition, the IC50 in [15] is 0.84 µM.
